Assay results as given in patent US20180002288A1, “USE OF PICOLINAMIDES AS FUNGICIDES” (DOW AGROSCIENCES LLC, priority 2014, published 2018).
Like-named read-outs stand apart in the source and are kept apart here.

Legend:
Puccinia triticina = test: Wheat Brown Rust fungicidal activity (PUCCRT); type: in vivo; conditions: for pest or weed control at 121.5 g/ha: Low Volume Cereal Activity at 121.5 g/Ha; for pest or weed control at 100 ppm: wheat, high volume
Description: All fungicides were evaluated using the aforementioned method for their activity vs. all target diseases, unless stated otherwise. Wheat leaf blotch and brown rust activity were also evaluated using track spray applications, in which case the fungicides were formulated as EC formulations, containing 0.1% Trycol 5941 in the spray solutions. Wheat plants (variety Yuma) were grown from seed in a greenhouse in 50% mineral soil/50% soil-less Metro mix until the first leaf was fully emerged, with 7-10 seedlings per pot. These plants were inoculated with an aqueous spore suspension of Zymoseptoria tritici either prior to or after fungicide treatments. After inoculation the plants were kept in 100% relative humidity (one day in a dark dew chamber followed by two to three days in a lighted dew chamber at 20° C.) to permit spores to germinate and infect the leaf. The plants were then transferred to a greenhouse set at 20° C. for disease to develop. When disease symptoms were fully expressed on the 1st leaves of untreated plants, infection levels were assessed on a scale of 0 to 100 percent disease severity. Percent disease control was calculated using the ratio of disease severity on treated plants relative to untreated plants. Wheat plants (variety Yuma) were grown from seed in a greenhouse in 50% mineral soil/50% soil-less Metro mix until the first leaf was fully emerged, with 7-10 seedlings per pot. These plants were inoculated with an aqueous spore suspension of Puccinia triticina either prior to or after fungicide treatments. […] The plants were then transferred to a greenhouse set at 24° C. for disease to develop. Fungicide formulation, application and disease assessment followed the procedures as described in the Example A.

Zymoseptoria tritici = test: Leaf Blotch of Wheat fungicidal activity (SEPTTR); type: in vivo; conditions: for pest or weed control at 121.5 g/ha: Low Volume Cereal Activity at 121.5 g/Ha; for pest or weed control at 100 ppm: wheat, high volume
Description: All fungicides were evaluated using the aforementioned method for their activity vs. all target diseases, unless stated otherwise. Wheat leaf blotch and brown rust activity were also evaluated using track spray applications, in which case the fungicides were formulated as EC formulations, containing 0.1% Trycol 5941 in the spray solutions. Wheat plants (variety Yuma) were grown from seed in a greenhouse in 50% mineral soil/50% soil-less Metro mix until the first leaf was fully emerged, with 7-10 seedlings per pot. These plants were inoculated with an aqueous spore suspension of Zymoseptoria tritici either prior to or after fungicide treatments. After inoculation the plants were kept in 100% relative humidity (one day in a dark dew chamber followed by two to three days in a lighted dew chamber at 20° C.) to permit spores to germinate and infect the leaf. The plants were then transferred to a greenhouse set at 20° C. for disease to develop. When disease symptoms were fully expressed on the 1st leaves of untreated plants, infection levels were assessed on a scale of 0 to 100 percent disease severity. Percent disease control was calculated using the ratio of disease severity on treated plants relative to untreated plants.

[1] = 24 h, 1 Day Protectant, read-out: PUCCRT 1DP (Wheat Brown Rust, 1 Day Protectant)
[2] = 72 h, 3 Day Curative, read-out: PUCCRT 3DC (Wheat Brown Rust, 3 Day Curative)
[3] = 24 h, 1 Day Protectant, read-out: SEPTTR 1DP (Wheat Leaf Blotch, 1 Day Protectant)
[4] = 72 h, 3 Day Curative, read-out: SEPTTR 3DC (Wheat Leaf Blotch, 3 Day Curative)
[5] = 24 h, 1 Day Protectant, read-out: PUCCRT 1DP % Control rating
[6] = 72 h, 3 Day Curative, read-out: PUCCRT 3DC % Control rating
[7] = 24 h, 1 Day Protectant, read-out: SEPTTR 1DP % Control rating
[8] = 72 h, 3 Day Curative, read-out: SEPTTR 3DC % Control rating

| Compound | pest or weed control at 121.5 g/ha (Puccinia triticina; [1]) | pest or weed control at 121.5 g/ha (Puccinia triticina; [2]) | pest or weed control at 121.5 g/ha (Zymoseptoria tritici; [3]) | pest or weed control at 121.5 g/ha (Zymoseptoria tritici; [4]) | pest or weed control at 100 ppm (Puccinia triticina; [5]) | pest or weed control at 100 ppm (Puccinia triticina; [6]) | pest or weed control at 100 ppm (Zymoseptoria tritici; [7]) | pest or weed control at 100 ppm (Zymoseptoria tritici; [8]) |
| --- | --- | --- | --- | --- | --- | --- | --- | --- |
| COc1ccnc(C(=O)N[C@@H](C)C(=O)O[C@@H](C)[C@H](Oc2ccc(Cl)cc2Cl)c2ccccc2)c1OCOC(C)=O [Example 199] | > 80% | < 80% | > 80% | > 80% | – | – | – | – |
| COc1ccnc(C(=O)N[C@@H](C)C(=O)O[C@@H](C)[C@H](Oc2ccc(Cl)cc2)c2ccccc2)c1O [Example 119] | – | – | – | – | > 80% | > 80% | < 80% | > 80% |
| COc1cc(F)ccc1[C@@H](OCC1CC1)[C@H](C)OC(=O)[C@H](C)NC(=O)c1nccc(OC)c1O [Example 289] | – | – | – | – | > 80% | > 80% | > 80% | > 80% |
| CC[C@H](NC(=O)c1nccc(OC)c1OC(C)=O)C(=O)O[C@@H](C)[C@H](Oc1cc(F)cc(Cl)c1)c1ccccc1 [Example 209] | > 80% | < 80% | > 80% | > 80% | – | – | – | – |
| COc1ccnc(C(=O)N[C@@H](C)C(=O)O[C@@H](C)[C@H](Oc2cccc(F)c2)c2cccc(-c3ccccc3)c2)c1OCOC(C)=O [Example 221] | > 80% | < 80% | > 80% | < 80% | – | – | – | – |
| COc1ccnc(C(=O)N[C@@H](C)C(=O)O[C@@H](C)[C@@H](Oc2ccc(Cl)cc2Cl)c2ccccc2)c1O [Example 134] | – | – | – | – | > 80% | > 80% | > 80% | < 80% |
| COc1ccnc(C(=O)N[C@@H](C)C(=O)O[C@@H](C)[C@H](Oc2ccc(C)cc2)c2ccccc2)c1OCOC(C)=O [Example 248] | > 80% | > 80% | > 80% | > 80% | – | – | – | – |
| COc1ccnc(C(=O)N[C@@H](C)C(=O)O[C@@H](C)C(Oc2ccc(F)cc2)c2ccc(F)cc2)c1O (some centres unmarked) [Example 147] | – | – | – | – | > 80% | < 80% | > 80% | > 80% |
| COc1ccnc(C(=O)N[C@@H](C)C(=O)O[C@H](C)[C@@H](Oc2ccccc2)c2ccccc2)c1O [Example 115] | – | – | – | – | < 0% | > 80% | < 0% | < 80% |
| COc1ccnc(C(=O)N[C@@H](C)C(=O)O[C@@H](C)[C@H](Oc2ccc(C(F)(F)F)cc2)c2ccccc2)c1OC(C)=O [Example 196] | > 80% | < 80% | > 80% | > 80% | – | – | – | – |
| COc1ccnc(C(=O)N[C@@H](C)C(=O)O[C@@H](C)[C@@H](OCC(C)C)c2ccccc2)c1OCOC(C)=O [Example 226] | > 80% | > 80% | < 80% | < 80% | – | – | – | – |
| CC[C@H](NC(=O)c1nccc(OC)c1OC(C)=O)C(=O)O[C@@H](C)[C@H](Oc1cc(F)ccc1F)c1ccccc1 [Example 194] | > 80% | < 80% | < 80% | < 0% | – | – | – | – |
| CC[C@H](NC(=O)c1nccc(OC)c1O)C(=O)O[C@@H](C)[C@H](Oc1cc(F)cc(Cl)c1)c1ccccc1 [Example 124] | – | – | – | – | > 80% | > 80% | > 80% | > 80% |
| COc1ccnc(C(=O)N[C@H](C(=O)O[C@@H](C)[C@H](Oc2ccc(C(F)(F)F)cc2)c2ccccc2)C(C)C)c1OCOC(C)=O [Example 197] | > 80% | < 80% | > 80% | < 0% | – | – | – | – |
